Assay results: patent US10899738B2 (THE REGENTS OF THE UNIVERSITY OF MICHIGAN, priority 2016, dated 2021)

Molecular target: menin protein (Homo sapiens (Human), UniProt O00255)
Assay: biochemical
Assay type: binding
Conditions: FP competitive binding, menin protein 4 nM, FAM-MM2 probe 2 nM; for IC50: read-out: Menin Binding Affinity IC50
Procedure, shortened: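 Competitive fluorescence polarization assay using FAM-labelled MLL1 peptide probe FAM-MM2 (2 nM final) preincubated with menin (4 nM final) in PBS with 0.02% bovine γ-globulin, 4% DMSO and 0.01% Triton X-100. Compounds were added and incubated 30 min at room temperature. IC50 came from nonlinear regression of competition curves, with Ki also derived.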

Chain of menin protein (O00255 whole entry): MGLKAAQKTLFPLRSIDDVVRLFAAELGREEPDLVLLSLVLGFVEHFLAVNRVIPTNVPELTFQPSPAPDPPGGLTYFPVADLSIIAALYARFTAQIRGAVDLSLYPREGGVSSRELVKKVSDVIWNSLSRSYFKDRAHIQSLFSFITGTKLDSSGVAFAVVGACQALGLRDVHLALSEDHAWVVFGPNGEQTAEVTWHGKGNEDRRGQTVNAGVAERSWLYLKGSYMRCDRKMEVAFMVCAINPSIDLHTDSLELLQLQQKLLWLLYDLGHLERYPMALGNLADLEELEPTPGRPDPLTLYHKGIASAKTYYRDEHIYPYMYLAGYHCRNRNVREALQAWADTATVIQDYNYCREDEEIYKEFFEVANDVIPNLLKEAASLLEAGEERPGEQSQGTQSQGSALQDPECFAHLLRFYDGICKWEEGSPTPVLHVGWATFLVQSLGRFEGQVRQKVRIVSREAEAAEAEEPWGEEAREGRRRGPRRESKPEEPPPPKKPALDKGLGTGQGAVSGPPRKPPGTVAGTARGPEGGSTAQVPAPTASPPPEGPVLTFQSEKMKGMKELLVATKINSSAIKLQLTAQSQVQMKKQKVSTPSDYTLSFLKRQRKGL

SMILES | IC50 [nM] | Menin Binding Affinity IC50 (μM)
COC(=O)N[C@H]1CCC[C@@H]1C(C#N)(c1ccccc1)C1CCN(CCC#Cc2ccc(S(=O)(=O)C(F)(F)F)cc2)CC1 (mixture of isomers) [compound 405, methyl rac-((1S,2R)-2-(cyano(phenyl)(1-(4-(4-((trifluoromethyl)sulfonyl)phenyl)but-3-yn-1-yl)piperidin-4-yl)methyl)cyclopentyl)carbamate] | 174 | –
CNC(=O)O[C@H]1CCC[C@@H]1C(Cn1ccnc1)(c1ccccc1)C1CCN(CC2CN(c3ccc(S(=O)(=O)C4COC4)cc3)C2)CC1 (mixture of isomers) [compound 412, rac-(1S,2R)-2-(2-(1H-imidazol-1-yl)-1-(1-((1-(4-(oxetan-3-ylsulfonyl)phenyl)azetidin-3-yl)methyl)piperidin-4-yl)-1-phenylethyl)cyclopentyl methylcarbamate] | 4 | –
CNC(=O)O[C@H]1CCC[C@@H]1C(Cn1ccnc1C)(c1cccc(F)c1)C1CCN(CC2CN(c3ccc(Cl)cc3)C2)CC1 (mixture of isomers) [compound 413, rac-(1S,2R)-2-(1-(1-((1-(4-chlorophenyl)azetidin-3-yl)methyl)piperidin-4-yl)-1-(3-fluorophenyl)-2-(2-methyl-1H-imidazol-1-yl)ethyl)cyclopentyl methylcarbamate] | 6 | –
CNC(=O)O[C@@H]1CCC[C@H]1C(Cn1ccnc1C)(c1cccc(F)c1)C1CCN(CC2CN(c3ccc(Cl)cc3)C2)CC1 (mixture of isomers) [compound 414, rac-(1R,2S)-2-(1-(1-((1-(4-chlorophenyl)azetidin-3-yl)methyl)piperidin-4-yl)-1-(3-fluorophenyl)-2-(2-methyl-1H-imidazol-1-yl)ethyl)cyclopentyl methylcarbamate] | 539 | –
CC(=O)O[C@H]1CCC[C@@H]1C(C#N)(c1cccc(F)c1)C1CCN(CC2CN(c3ccc(C#N)cc3)C2)CC1 (mixture of isomers) [compound 415, rac-(1S,2R)-2-(cyano(1-((1-(4-cyanophenyl)azetidin-3-yl)methyl)piperidin-4-yl)(3-fluorophenyl)methyl) cyclopentyl acetate] | 16 | –
CC(=O)O[C@@H]1CCC[C@H]1C(C#N)(c1cccc(F)c1)C1CCN(CC2CN(c3ccc(C#N)cc3)C2)CC1 (mixture of isomers) [compound 416, rac-(1R,2S)-2-(cyano(1-((1-(4-cyanophenyl)azetidin-3-yl)methyl)piperidin-4-yl)(3-fluorophenyl)methyl) cyclopentyl acetate] | 3280 | –
CC(=O)O[C@H]1CCC[C@@H]1C(C#N)(c1cccc(C(F)(F)F)c1)C1CCN(CC2CN(c3ccc(C#N)cc3)C2)CC1 (mixture of isomers) [compound 417, rac-(1S,2R)-2-(cyano(1-((1-(4-cyanophenyl)azetidin-3-yl)methyl)piperidin-4-yl)(3-(trifluoromethyl)phenyl)methyl)cyclopentyl acetate] | 1610 | –
CC(=O)O[C@@H]1CCC[C@H]1C(C#N)(c1cccc(C(F)(F)F)c1)C1CCN(CC2CN(c3ccc(C#N)cc3)C2)CC1 (mixture of isomers) [compound 418, rac-(1R,2S)-2-(cyano(1-((1-(4-cyanophenyl)azetidin-3-yl)methyl)piperidin-4-yl)(3-(trifluoromethyl)phenyl)methyl)cyclopentyl acetate] | 923000 | –
CC(=O)O[C@H]1CCC[C@@H]1C(C#N)(c1cccc(F)c1)C1CCN(CC2CN(c3ccc(CC(F)(F)F)cc3)C2)CC1 (mixture of isomers) [compound 419, rac-(1S,2R)-2-(cyano(3-fluorophenyl)(1-((1-(4-(2,2,2-trifluoroethyl)phenyl)azetidin-3-yl)methyl)piperidin-4-yl)methyl)cyclopentyl acetate] | 293 | –
CC(=O)O[C@@H]1CCC[C@H]1C(C#N)(c1cccc(F)c1)C1CCN(CC2CN(c3ccc(CC(F)(F)F)cc3)C2)CC1 (mixture of isomers) [compound 420, rac-(1R,2S)-2-(cyano(3-fluorophenyl)(1-((1-(4-(2,2,2-trifluoroethyl)phenyl)azetidin-3-yl)methyl)piperidin-4-yl)methyl)cyclopentyl acetate] | 11600 | –
CNC(=O)O[C@H]1CCC[C@@H]1C(Cn1ccnc1)(c1ccccc1)C1CCN(CC2CN(c3ccc(C(F)(F)F)cc3)C2)CC1 (mixture of isomers) [compound 421, rac-(1S,2R)-2-(2-(1H-imidazol-1-yl)-1-phenyl-1-(1-((1-(4-(trifluoromethyl)phenyl)azetidin-3-yl)methyl)piperidin-4-yl)ethyl)cyclopentyl methylcarbamate] | 4 | –
CNC(=O)O[C@H]1CCC[C@@H]1C(C#N)(c1ccccc1)C1CCN(CC2CN(c3ccc(C(C)(C)C)cc3)C2)CC1 (mixture of isomers) [compound 422, rac-(1S,2R)-2-((1-((1-(4-(tert-butyl)phenyl)azetidin-3-yl)methyl)piperidin-4-yl)(cyano)(phenyl)methyl) cyclopentyl methylcarbamate] | 28 | –
CNC(=O)O[C@@H]1CCC[C@H]1C(C#N)(c1ccccc1)C1CCN(CC2CN(c3ccc(C(C)(C)C)cc3)C2)CC1 (mixture of isomers) [compound 423, rac-(1R,2S)-2-((1-((1-(4-(tert-butyl)phenyl)azetidin-3-yl)methyl)piperidin-4-yl)(cyano)(phenyl)methyl) cyclopentyl methylcarbamate] | 776 | –
N#Cc1ccc(OC2CC(N3CCC(C4(C5CCCC5)NCCc5ccccc54)CC3)C2)cc1 (single isomer, unassigned) [compound 130, 4-((1s,3s)-3-(4-(1-cyclopentyl-1,2,3,4-tetrahydroisoquinolin-1-yl)piperidin-1-yl)cyclobutoxy)benzonitrile] | 10600 | –
N#Cc1ccc(OC2CC(N3CCC(C4(C5CCCC5)NCCc5ccccc54)CC3)C2)cc1 (single isomer, unassigned) [compound 131, 4-((1r,3r)-3-(4-(1-cyclopentyl-1,2,3,4-tetrahydroisoquinolin-1-yl)piperidin-1-yl)cyclobutoxy)benzonitrile] | 1100 | –
c1ccc(CN2CCC(C3(C4CCCC4)NCCc4ccccc43)CC2)cc1 (centres unmarked) [Cpd. No. 71, 1-(1-benzylpiperidin-4-yl)-1-cyclopentyl-1,2,3,4-tetrahydroisoquinoline] | 190000 | –
N#Cc1ccc(N2CC(CN3CCC(C4(C5CCCC5)NCCc5ccccc54)CC3)C2)cc1 (centres unmarked) [Cpd. No. 129, 4-(3-((4-(1-cyclopentyl-1,2,3,4-tetrahydroisoquinolin-1-yl)piperidin-1-yl)methyl)azetidin-1-yl)benzonitrile] | 36 | –
N#Cc1ccc(OCCCN2CCC(C(C#N)(c3ccccc3)C3CCCC3)CC2)cc1 (centres unmarked) [compound 20, 4-(3-(4-(cyano(cyclopentyl)(phenyl)methyl)piperidin-1-yl)propoxy)benzonitrile] | 1300 | –
N#Cc1ccc(OCCCN2CCC(C3(C4CCCC4)CNC(=O)c4ccccc43)CC2)cc1 (centres unmarked) [compound 21, 4-(3-(4-(4-cyclopentyl-1-oxo-1,2,3,4-tetrahydroisoquinolin-4-yl)piperidin-1-yl)propoxy)benzonitrile] | 1100 | –
N#Cc1ccc(OCCCN2CCC(C3(C4CCCC4)NCCc4ccc(F)cc43)CC2)cc1 (centres unmarked) [compound 22, 4-(3-(4-(1-cyclopentyl-7-fluoro-1,2,3,4-tetrahydroisoquinolin-1-yl)piperidin-1-yl)propoxy)benzonitrile] | 473 | –
N#Cc1ccc(OCCCN2CCC(C3(C4CCCC4)C(=O)NCc4ccccc43)CC2)cc1 (centres unmarked) [compound 24, 4-(3-(4-(4-cyclopentyl-3-oxo-1,2,3,4-tetrahydroisoquinolin-4-yl)piperidin-1-yl)propoxy)benzonitrile] | 416 | –
CS(=O)(=O)c1ccc(N2CC(CN3CCC(C4(C5CCCC5)C(=O)N(Cc5ccccc5)Cc5ccccc54)CC3)C2)cc1 (centres unmarked) [compound 25, 2-benzyl-4-cyclopentyl-4-(1-((1-(4-(methylsulfonyl)phenyl)azetidin-3-yl)methyl)piperidin-4-yl)-1,4-dihydroisoquinolin-3(2H)-one] | 2700 | –
COC1CCC(C2(C3CCN(CCCOc4ccc(C#N)cc4)CC3)C(=O)NCc3ccccc32)C1 (centres unmarked) [compound 26, 4-(3-(4-(4-(3-methoxycyclopentyl)-3-oxo-1,2,3,4-tetrahydroisoquinolin-4-yl)piperidin-1-yl)propoxy)benzonitrile] | – | No inhibition
CN1CCc2ccccc2C1(C1CCCC1)C1CCN(CCCOc2ccc(C#N)cc2)CC1 (centres unmarked) [compound 28, 4-(3-(4-(1-cyclopentyl-2-methyl-1,2,3,4-tetrahydroisoquinolin-1-yl)piperidin-1-yl)propoxy)benzonitrile] | 379 | –
N#Cc1ccc(OCCCN2CCC(C3(C4CCCC4)NCCc4c(F)cccc43)CC2)cc1 (centres unmarked) [compound 29, 4-(3-(4-(1-cyclopentyl-5-fluoro-1,2,3,4-tetrahydroisoquinolin-1-yl)piperidin-1-yl)propoxy)benzonitrile] | 91 | –
N#Cc1ccc(OCCCN2CCC(C3(C4CCCC4)NCCc4cc(F)ccc43)CC2)cc1 (centres unmarked) [compound 30, 4-(3-(4-(1-cyclopentyl-6-fluoro-1,2,3,4-tetrahydroisoquinolin-1-yl)piperidin-1-yl)propoxy)benzonitrile] | 439 | –
CN1Cc2cccc(F)c2C(C2CCCC2)(C2CCN(CCCOc3ccc(C#N)cc3)CC2)C1 (centres unmarked) [compound 31, 4-(3-(4-(4-cyclopentyl-5-fluoro-2-methyl-1,2,3,4-tetrahydroisoquinolin-4-yl)piperidin-1-yl)propoxy)benzonitrile] | 37 | –
N#Cc1ccc(OCCCN2CCC(C3(C4CCCC4)NCCc4sccc43)CC2)cc1 (centres unmarked) [compound 32, 4-(3-(4-(4-cyclopentyl-4,5,6,7-tetrahydrothieno[3,2-c]pyridin-4-yl)piperidin-1-yl)propoxy)benzonitrile] | 59 | –
CN1Cc2cccc(F)c2C(C2CCCC2)(C2CCN(CC3CN(c4ccc(C#N)cc4)C3)CC2)C1 (centres unmarked) [compound 33, 4-(3-((4-(4-cyclopentyl-5-fluoro-2-methyl-1,2,3,4-tetrahydroisoquinolin-4-yl)piperidin-1-yl)methyl)azetidin-1-yl)benzonitrile] | 19 | –
